Source: ChEMBL document CHEMBL3507680, “University of Dundee, Gates Library screen for HepG2 cell viability”

Assay: Human HepG2 cell viability assay in 384 well format
Format: toxicity, cell-based
Set-up: dose 125 nL, time 70.5 hour; concentration not given beside the values
Conditions: HepG2 cells, read-out: Inhibition

| Compound | cytotoxicity at 70.5 h [%] |
| --- | --- |
| CCN(C(C)=O)c1nc(CN2CCCC2Cn2cncn2)cs1 (stereo not drawn) | 17.8 |
| c1ccc(-c2nnc(CN3CCOC(Cn4cccn4)C3)o2)cc1 (stereo not drawn) | -6.72 |
| O=C(Cc1ccsc1)N1CCC[C@@H]1Cn1c(=O)oc2ccccc21 | -5.78 |
| COCc1nnn2c1CN(C(=O)c1ccnnc1)CCC2 | 8.76 |
| COCCCN(Cc1ccccn1)Cc1ccnn1C1CCCCO1 (stereo not drawn) | 13.4 |
| O=C(O)c1ccccc1C1CCN(Cc2ccc(-c3cc[nH]n3)o2)C1 (stereo not drawn) | -2.33 |
| O=C(NCCO)NCC(c1ccccc1)N1CCc2sccc2C1 (stereo not drawn) | -13.1 |
| CC(C)n1nnnc1-c1ccc(NC(=O)CCC(F)(F)F)cc1F | -18 |
| COc1ccc(OC2CCN(C(=O)C3CCCN(C)C3)CC2)cc1 (stereo not drawn) | -0.196 |
| O=C(C1CCS(=O)(=O)CC1)N1C[C@H]2CC[C@@H]1CN(Cc1ccccc1)C2 | 10.4 |
| Cc1ccc(CN2CCCn3nnc(COCC4CC4)c3C2)s1 | -1.67 |
| CC(C(N)=O)N(C)Cc1ccccc1C(F)(F)F (stereo not drawn) | -87.9 |
| CCC(C)NC(=O)c1sccc1-n1cnnn1 (stereo not drawn) | 27.2 |
| CCC1CCCCN1CCc1ccncc1 (stereo not drawn) | 29.9 |
| O=S(=O)(CCCN1CCCC(Cn2cncn2)C1)c1ccccc1 (stereo not drawn) | 4.82 |
| COc1ncccc1C(=O)NCCn1nc(C)ccc1=O | -8.68 |
| O=C(CCc1ccc(C(F)(F)F)cc1)N1CCCS1(=O)=O | -4.91 |
| CCOC(=O)c1nnc2ccccc2c1N1CCN(CC)CC1 | -7.65 |
| CCCc1ccc2oc(C(=O)N3CCN(CCC(N)=O)CC3)c(C)c2c1 | 19.5 |
| Cc1ccc2nc(CNCCCN3CCCC3)cc(O)c2c1 | -9.2 |
| Cc1cc(CNc2ccnn2CC(C)C)ccc1-n1cncn1 | 7.96 |
| COCCN(C)C[C@@H]1CN(C(=O)c2ccc(SC)cc2)C[C@@H]1CO | 12.6 |
| CCc1cc(N2C[C@H](C3CC3)[C@@H](N)C2)nc(N2CCOCC2)n1 | -5.91 |

| Compound | cytotoxicity at 70.5 h [%] |
| --- | --- |
| CCc1nc(CN2CCCC(NCc3nnc(C4CC4)n3C)C2)no1 (stereo not drawn) | -8.85 |
| Cc1ccc(S(=O)(=O)Nc2ccc(C)c(C(=O)O)c2)s1 | -0.348 |
| Cc1nn(C)c2ncnc(N3CCCC(OCc4ccccn4)C3)c12 (stereo not drawn) | 1.57 |
| CCOc1ncccc1C(=O)NC1CCCN(c2ncccn2)C1 (stereo not drawn) | 1.87 |
| COCCNC(=O)C1CCCN(c2ccc3nncn3n2)C1 (stereo not drawn) | 9.49 |
| c1coc(-c2noc(CN3CCC(c4ccn[nH]4)CC3)n2)c1 | -8.33 |
| c1cc(-c2noc([C@@H]3Cc4nc[nH]c4CN3)n2)ccn1 | 1.06 |
| Cc1cccc(CNC[C@H]2Cn3cc(-c4ccccc4)nc3CO2)n1 | -7.12 |
| CS(=O)(=O)c1ccc(OCCNCc2cccc(Cl)c2)cc1 | 23.8 |
| CCCC(=O)Nc1ccc(CC(=O)N(CC)CC2CCCCO2)cc1 (stereo not drawn) | 8.7 |
| COc1ccc(-c2c[nH]c([C@@H]3COCCN3)n2)cc1 | 1.65 |
| Cn1ccnc1CN1C[C@H](N2CCOCC2)[C@@H]2OCCC[C@@H]21 | -3.14 |
| O=C(COC1CCCCC1)N1CCN(C(=O)Cc2ccccn2)CC1 | -6.92 |
| COc1ccc(CC(=O)N2CCCCC2Cn2cccn2)cc1OC (stereo not drawn) | -2.2 |
| Cc1cccc(CN(Cc2ccccn2)Cc2ncc(C(C)(C)C)o2)c1 | -11.5 |
| CCOC(=O)C1CCN(C(=O)c2cnn(-c3ccccc3F)c2N)CC1 | -4.94 |
| CC(C)[C@@H]1CN(C(=O)NCc2ccco2)C[C@H]1N(C)C | -5.48 |
| COCc1nc2ncc3c(=O)n(-c4ccc(C(C)=O)cc4)ccc3n2n1 | -10.8 |
| Cc1ccc(C)c2c(=O)cc(CN3CC[C@@H](N)[C@H](O)C3)[nH]c12 | -3.81 |
| COc1cccc(CC2(C(=O)O)CCN(c3ccc(Cl)cn3)CC2)c1 | -3.25 |
| CN1CCCN(c2cnn(Cc3ccncc3)c(=O)c2)CC1 | -9.95 |
| CC(=O)N(Cc1noc(C)n1)C1CCN(Cc2cccc(C#N)c2)C1 (stereo not drawn) | 30.1 |
| Cc1cc(N2CCCC2c2cnccn2)ncn1 (stereo not drawn) | -5.35 |

| Compound | cytotoxicity at 70.5 h [%] |
| --- | --- |
| O=C(COCC1CC1)Nc1ncccc1O | -6.89 |
| Cc1nc(-c2ccsc2)ccc1C(=O)NCCN1CCOCC1 | 0.983 |
| COCC(=O)N1CCC(c2c(C(=O)N(C)C)sc3ncccc23)C1 (stereo not drawn) | 27.1 |
| COc1ccc(Cn2ccnc2)cc1F | -10.7 |
| Cc1nnsc1C(=O)N1CCCC(c2nccn2Cc2cscn2)C1 (stereo not drawn) | -0.672 |
| Cc1cccc(C(=O)N2CCC3(CC2)CC(c2cnn(C)c2)CO3)c1 (stereo not drawn) | -15 |
| Cc1ccnn1CCC(=O)N1CCC(c2cnccn2)CC1 | -7.09 |
| COc1ccc(CN2CCc3ncnc(C4CCOC4)c3CC2)cc1 (stereo not drawn) | 13.2 |
| CCc1nnc2n1CCN(C(=O)C(C)Oc1ccc(C#N)cc1)C2 (stereo not drawn) | -10.1 |
| CC(=O)NC1CCN(c2cc(C3CCNCC3)nc(C)n2)C1 (stereo not drawn) | -6.6 |
| CNc1oc(-c2cc(S(=O)(=O)N3CCCC3)c(C)o2)nc1C#N | -25 |
| CNCCN1C(=O)CC[C@H]2CN(c3cnc4ccccc4n3)CC[C@H]21 | -2.89 |
| Cc1nccn1CC1CCCN(S(=O)(=O)c2cnn(C)c2)C1 (stereo not drawn) | -2.81 |
| COC(=O)[C@@H]1CCCN1C(=O)c1cn(CCCc2ccccc2)nn1 | -19.4 |
| Cc1cccc2nc(CN3CCC(N4CCN(C)C4=O)CC3)cn12 | -4.38 |
| CCn1cnnc1CNC(=O)NC(C)C(C)C (stereo not drawn) | -17.7 |
| CCOC(=O)[C@@H]1[C@@H](O)C(=O)N(C)C12CCN(C(=O)OC)CC2 | -10.2 |
| CCn1nc(C)c(S(=O)(=O)Nc2cccc(C(=O)O)c2C)c1C | -2.69 |
| COc1cccc(CN2CCC(CO)(Cc3ccc(Cl)cc3)CC2)c1O | -5.98 |
| CS(=O)(=O)N1CCOC2(CCN(c3nccs3)CC2)c2ccccc21 | 15.3 |
| Cc1nccc([C@@H]2C[C@@H]3CCN(Cc4cccs4)C[C@H]3O2)n1 | 4.44 |
| Cc1n[nH]c(C)c1S(=O)(=O)N1CCC(Oc2cnccn2)CC1 | -2.37 |
| COc1cccc(OCC(=O)N2CCCSCC2CN2CCOCC2)c1 (stereo not drawn) | 14.1 |

| Compound | cytotoxicity at 70.5 h [%] |
| --- | --- |
| C=C/C=c1\c(=C/C)oc2c(NCc3ccccc3)ncnc12 | 10.6 |
| Cc1ccnc(NC(=O)c2cnc(C3CCCNC3)cn2)c1 (stereo not drawn) | -4.33 |
| CCn1nc2c(cc1=O)CN(CC(=O)Nc1nnc(C)s1)CC2 | -15 |
| O=S(=O)(CC1CCCN1S(=O)(=O)C1CC1)c1ccccc1 (stereo not drawn) | -6.46 |
| O=c1cc(N2CCNCC2)cnn1CCCn1cccn1 | -9.24 |
| O=C(CN(Cc1ccccc1)CC1CCOCC1)NC(=O)NC1CC1 | 11.8 |
| O=C(c1cncc2ccccc12)N1CCC[C@@H]1CO | -11.6 |
| c1csc(-c2nc(CN3CCOC(Cn4cncn4)C3)cs2)c1 (stereo not drawn) | -26.8 |
| CC(=O)N1CCC2(CCCN(Cc3ccc(Cl)c(C(F)(F)F)c3)C2)C1 (stereo not drawn) | -5.25 |
| CCn1ccnc1CN1CCN(CC(O)c2ccccc2)CC1 (stereo not drawn) | -15.4 |
| O=C(NCCCNc1ccc(C(F)(F)F)cn1)c1ccc(F)cc1Br | -6.12 |
| CN1CCN(C(=O)Cn2ccc3c(Cl)cccc32)CC1 | -12.2 |
| CN(C)CC1(O)CCCN(C(=O)Cn2ccc3ccccc32)CC1 (stereo not drawn) | 29.7 |
| CN1CCN(C(=O)c2cc(-c3cnc(N4CCCC4)nc3)cn2C)CC1 | -21.9 |
| CC(C(=O)N1CCCN(c2ncccc2C#N)CC1)n1ccnc1 (stereo not drawn) | 21.6 |
| CCc1ccc(C(=O)NC2CCN(c3ccn(C)n3)C2)o1 (stereo not drawn) | -2.13 |
| CCC1(CNC(=O)NC(c2nnc3n2CCC3)C(C)C)CCC1 (stereo not drawn) | 35.2 |
| CCc1nc(C2CCCN(C(=O)c3cn(C)nc3C)C2)no1 (stereo not drawn) | 36.3 |
| O=C(c1cccs1)N1CCc2ncnc(C3CCOC3)c2CC1 (stereo not drawn) | -14.6 |
| O=C(Cn1cnnn1)Nc1ccc(F)cc1OCC1CC1 | -13.9 |
| CC(C)(C)c1ccc(OCc2nc3c(c(=O)[nH]2)CCNC3)cc1 | -7.79 |
| CC(C)Cc1nc(CN2CCC(NC(=O)c3cccs3)CC2)no1 | -6.12 |
| O=C(NCCc1ccccn1)[C@@]12CCO[C@@H]1CCN(c1ncccn1)C2 | -2.15 |

| Compound | cytotoxicity at 70.5 h [%] |
| --- | --- |
| COc1cccc(CC2CN(C3CC(C)(C)NC(C)(C)C3)CCO2)c1 (stereo not drawn) | 50.4 |
| CN(C)c1ccc(C(=O)N2CCC(c3cc4ncccc4[nH]3)CC2)cc1 | -1.4 |
| C[C@H]1CN(C(=O)c2ccoc2)C[C@@]12CCN(CCN(C)C)C2=O | 14.7 |
| COc1c(NS(=O)(=O)c2ccc(F)c(C)c2)c(C)nn1C | 0.334 |
| CC(=O)N1CCCCCC1C1CCN(c2ncccc2C#N)CC1 (stereo not drawn) | -1.45 |
| N#Cc1cccnc1OC1CCNCC1 | 37.8 |
| COCCc1nc(CN2CC(C)(c3ccccc3)CCC2=O)no1 (stereo not drawn) | -2.58 |
| Cc1c[nH]c(CN2CC[C@@]3(O)CCN(C(=O)C4CCC4)C[C@H]3C2)n1 | -1.74 |
| NS(=O)(=O)Cc1ccc(CNC(=O)NCC2CCOC2)cc1 (stereo not drawn) | -15.3 |
| Cc1nc(C)c(CC(=O)N2C[C@@H](C(=O)O)[C@H](c3ccncc3)C2)s1 | -0.442 |
| O=C(Cc1ccc2c(c1)OCCO2)N1CCN(c2cnccn2)CC1 | -1.49 |
| OC1(CN2CCCC2)CCCN(Cc2c[nH]c(CC3CCCC3)n2)C1 (stereo not drawn) | -4.13 |
| O=C(NC[C@H]1OC[C@@H](NC2CCC2)[C@@H]1O)c1cccs1 | -5.08 |
| Cc1ccc2c(c1)C1(CCNCC1)CC2NC1CC1 (stereo not drawn) | 2.66 |
| Cc1cc(C(=O)N2CCN(C(=O)CC(C)C)[C@@H]3CS(=O)(=O)C[C@@H]32)no1 | -11.9 |
| CCn1cnnc1CNC(=O)c1ccc(Cl)cc1I | -7.84 |
| CC1CCN(CCNC(=O)c2ccn(-c3ccccc3)n2)CC1 | -6.14 |
| Cc1nc(C)n(CC2CN(Cc3cccc(C#N)c3)CCO2)n1 (stereo not drawn) | -24.6 |
| c1cnc(N2CCCC3(COCCN(CC4CC4)C3)C2)nc1 (stereo not drawn) | -10 |
| c1cnnc(N2CCCC(NCc3nc(C4CC4)no3)C2)c1 (stereo not drawn) | -1.23 |
| N#Cc1cccc(C(=O)NC2CCc3c(ccc(=O)n3CC3CC3)C2)c1 (stereo not drawn) | -2.82 |
